1 compound from US11787839B2, “Targeting α2δ-1-bound glutamate receptors for treating diseases and disorders” (Board of Regents, The University of Texas System, priority 2017, dated 2023) can be followed below.

For data set [1], the target named is presynaptic NMDARs of spinal lamina II neurons (Rattus norvegicus, UniProt P35439+Q00959+Q00960).
The subject of data set [2] is paclitaxel-treated rats. Description: Paclitaxel-induced pain hypersensitivity in rats. It is filed as in vivo, rat. Conditions: paclitaxel- vs vehicle-treated rats. As for the experimental part: (§1) To induce neuropathic pain, rats and mice were intraperitoneally injected with paclitaxel (2 mg/kg; TEVA Pharmaceuticals, North Wales, Pa.) every 2 days for a total of 4 injections (days 1, 3, 5 and 7; total dose, 8 mg/kg), as described previously (Polomano et al., 2001). Animals in the control group were intraperitoneally injected with the vehicle (Cremophor EL/ethanol, 1:1) on the same 4 days. The presence of tactile allodynia was confirmed 10 to 12 days after drug treatment. Intrathecal catheters were implanted in some paclitaxel-treated rats during isoflurane-induced anesthesia. Briefly, a small puncture was made in the atlanto-occipital membrane of the cisterna magna and inserted a PE-10 catheter with the caudal tip reaching the lumbar enlargement of the spinal cord (Chen et al., 2014a; Xie et al., 2016).
Behavioral assessment of nociception: To measure tactile allodynia, mice or rats were individually placed on a mesh floor within a suspended chamber. […]
To quantify the mechanical nociceptive threshold in rats, the paw pressure (Randall-Selitto) test was conducted on the left hindpaw using an analgesiometer (Ugo Basile, Varese, Italy). […] When the rat withdrew its paw or vocalized, the pedal was immediately released, and the withdrawal threshold was recorded (Chen et al., 2014a). […]
(§2) To assess the thermal sensitivity of rats, the were placed individually on the glass surface of a thermal testing apparatus (IITC Life Sciences, Woodland Hills, Calif.). […] The paw withdrawal latency was recorded with a timer, and the hindpaw was tested twice to obtain an average time. […] After the threshold temperature was recorded, the mice were immediately removed from the plate. The heat threshold measurement was repeated 30 min later, and the average of the 2 recorded temperatures was considered as the heat threshold. The cold threshold was measured by cooling the plate from 30° C. at a rate of 6° C./min until nocifensive behaviors were observed. […]

Data set [3] has as its system α2δ-1. Description: α2δ-1 expression, α2δ-1-GluN1 complex and synaptosomal proteins after paclitaxel. The data set is classed as in vivo, rat. Conditions: paclitaxel- vs vehicle-treated rats. As for the experimental part: as §1
Quantitative PCR: Rats were deeply anesthetized with 5% isoflurane, and the DRG and dorsal half of spinal cord tissues at the L5 and L6 levels were removed. Total RNA was extracted from the DRG and spinal cord tissues using TRIsure (Cat. #BIO-38032, Bioline, Taunton, Mass.). After treatment with RNase-free DNase (Cat. #79254, QIAGEN, Hilden, Germany), 500 ng RNA was used for reverse transcription with a RevertAid RT Reverse Transcription Kit (Cat. #K1619, Thermo Fisher Scientific, Waltham, Mass.). One μL of 5-times diluted cDNA was added to a 10-μL reaction volume with SYBR Green Real-Time PCR Mix (Cat. #A25780, Thermo Fisher Scientific). Real-time PCR was performed using a QuantStudio 7 Flex Real-Time PCR System (Applied Biosystems, Waltham, Mass.). The thermal cycling conditions used were: 1 cycle at 95° C. for 10 min, 40 cycles at 95° C. for 15 s, and 60° C. for 60 s. The following primers were used: α2δ-1 forward, […] (SEQ ID NO:60); α2δ-1 reverse, […] (SEQ ID NO:61); α2δ-2 forward, […] (SEQ ID NO:62); α2δ-2 reverse, […] (SEQ ID NO:63); α2δ-3 forward, […] (SEQ ID NO:64); α2δ-3 reverse, […] (SEQ ID NO:65); Gapdh forward, […] (SEQ ID NO:66); Gapdh reverse. […] (SEQ ID NO:67). Relative mRNA levels were calculated using the 2−ΔΔCT method and normalized to the Gapdh level in the same sample.
Coimmunoprecipitation using spinal cord tissue membrane extracts: Tissues from the dorsal halves of the rat spinal cord at the L5 and L6 levels were collected under isoflurane anesthesia and homogenized in ice-cold hypotonic buffer (20 mM Tris [pH 7.4], 1 mM CaCl2), 1 mM MgCl2, and protease inhibitors) for extracting membrane proteins. The nuclei and unbroken cells were removed by centrifugation at 300×g for 5 min, and the supernatant was centrifuged for 20 min at 21,000×g. The pellets were re-suspended and solubilized in immunoprecipitation buffer (50 mM Tris [pH7.4], 250 mM NaCl, 10% glycerol, 0.5% NP-40, 20 mM NaF, 1 mM Na3VO4, 10 mM N-ethylmaleimide, 1 mM phenylmethylsulfonyl fluoride, 2 mM benzamide, and protease inhibitors), and the soluble fraction was incubated at 4° C. overnight with Protein A/G beads ([…], Millipore, Darmstadt, Germany) prebound to mouse anti-GluN1 antibody (#75-272, 1:1000, NeuroMab, Davis, Calif.). Protein A/G beads prebound to mouse IgG were uses as the control. All samples were washed 3 times with immunoprecipitation buffer and then immunoblotted with rabbit anti-α2δ-1 (#ACC-015, 1:500, Alomone Labs, Jerusalem, Israel) and rabbit anti-GluN1 antibodies (#G8913, 1:1,000, Sigma-Aldrich, St. Louis, Mo.). The amount of the α2δ-1-GluN1 protein complex was calculated by normalizing the amount of α2δ-1 to that of GluN1 on the same gel. […]

Data set [4] relates to WT mice. Description: Paclitaxel-induced pain hypersensitivity in mice. The data set is classed as in vivo, mouse. As for the experimental part:
To induce neuropathic pain, rats and mice were intraperitoneally injected with paclitaxel (2 mg/kg; TEVA Pharmaceuticals, North Wales, Pa.) every 2 days for a total of 4 injections (days 1, 3, 5 and 7; total dose, 8 mg/kg), as described previously (Polomano et al., 2001). Animals in the control group were intraperitoneally injected with the vehicle (Cremophor EL/ethanol, 1:1) on the same 4 days. The presence of tactile allodynia was confirmed 10 to 12 days after drug treatment. Intrathecal catheters were implanted in some paclitaxel-treated rats during isoflurane-induced anesthesia. […]
as §2

presynaptic NMDARs of spinal lamina II neurons, sequence (Q00959 20-1464 limits assumed, other chains not shown): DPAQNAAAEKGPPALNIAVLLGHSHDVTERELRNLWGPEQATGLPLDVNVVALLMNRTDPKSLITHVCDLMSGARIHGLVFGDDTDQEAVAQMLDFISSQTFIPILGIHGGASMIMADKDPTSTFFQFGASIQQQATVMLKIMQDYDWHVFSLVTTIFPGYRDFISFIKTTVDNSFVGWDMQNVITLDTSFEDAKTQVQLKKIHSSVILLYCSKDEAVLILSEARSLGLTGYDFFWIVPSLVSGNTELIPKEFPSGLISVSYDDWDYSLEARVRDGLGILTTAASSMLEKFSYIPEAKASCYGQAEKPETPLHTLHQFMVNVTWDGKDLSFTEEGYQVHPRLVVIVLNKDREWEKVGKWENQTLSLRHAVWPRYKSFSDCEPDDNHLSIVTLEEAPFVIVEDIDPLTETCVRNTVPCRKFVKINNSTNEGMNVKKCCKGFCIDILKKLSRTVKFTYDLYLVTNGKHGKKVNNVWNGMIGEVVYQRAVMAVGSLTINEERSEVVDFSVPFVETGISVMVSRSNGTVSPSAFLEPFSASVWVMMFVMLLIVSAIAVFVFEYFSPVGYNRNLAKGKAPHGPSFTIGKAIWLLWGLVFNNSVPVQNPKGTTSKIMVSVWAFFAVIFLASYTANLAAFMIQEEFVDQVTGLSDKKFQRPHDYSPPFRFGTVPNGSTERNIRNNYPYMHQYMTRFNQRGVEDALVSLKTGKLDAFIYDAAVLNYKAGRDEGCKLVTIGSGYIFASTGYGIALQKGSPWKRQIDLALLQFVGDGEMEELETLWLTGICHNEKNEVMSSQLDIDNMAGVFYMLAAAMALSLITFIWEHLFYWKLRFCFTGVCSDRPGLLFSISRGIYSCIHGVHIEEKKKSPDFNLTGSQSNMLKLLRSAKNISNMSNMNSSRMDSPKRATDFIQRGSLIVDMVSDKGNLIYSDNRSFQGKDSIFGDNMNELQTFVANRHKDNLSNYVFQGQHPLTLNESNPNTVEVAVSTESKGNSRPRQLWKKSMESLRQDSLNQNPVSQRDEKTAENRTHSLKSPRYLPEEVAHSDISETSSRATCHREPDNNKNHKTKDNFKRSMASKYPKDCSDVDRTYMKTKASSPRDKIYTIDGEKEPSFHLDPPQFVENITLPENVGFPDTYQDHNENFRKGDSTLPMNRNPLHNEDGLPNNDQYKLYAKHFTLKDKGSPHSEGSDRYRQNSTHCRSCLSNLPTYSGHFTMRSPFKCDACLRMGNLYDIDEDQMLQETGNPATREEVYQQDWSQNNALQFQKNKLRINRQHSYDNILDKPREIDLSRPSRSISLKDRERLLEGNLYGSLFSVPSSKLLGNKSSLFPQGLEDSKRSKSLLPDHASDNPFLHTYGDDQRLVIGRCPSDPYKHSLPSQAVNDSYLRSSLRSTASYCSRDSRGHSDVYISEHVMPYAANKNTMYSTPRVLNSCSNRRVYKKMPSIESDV
presynaptic NMDARs of spinal lamina II neurons, sequence (Q00960 27-1482, other chains not shown): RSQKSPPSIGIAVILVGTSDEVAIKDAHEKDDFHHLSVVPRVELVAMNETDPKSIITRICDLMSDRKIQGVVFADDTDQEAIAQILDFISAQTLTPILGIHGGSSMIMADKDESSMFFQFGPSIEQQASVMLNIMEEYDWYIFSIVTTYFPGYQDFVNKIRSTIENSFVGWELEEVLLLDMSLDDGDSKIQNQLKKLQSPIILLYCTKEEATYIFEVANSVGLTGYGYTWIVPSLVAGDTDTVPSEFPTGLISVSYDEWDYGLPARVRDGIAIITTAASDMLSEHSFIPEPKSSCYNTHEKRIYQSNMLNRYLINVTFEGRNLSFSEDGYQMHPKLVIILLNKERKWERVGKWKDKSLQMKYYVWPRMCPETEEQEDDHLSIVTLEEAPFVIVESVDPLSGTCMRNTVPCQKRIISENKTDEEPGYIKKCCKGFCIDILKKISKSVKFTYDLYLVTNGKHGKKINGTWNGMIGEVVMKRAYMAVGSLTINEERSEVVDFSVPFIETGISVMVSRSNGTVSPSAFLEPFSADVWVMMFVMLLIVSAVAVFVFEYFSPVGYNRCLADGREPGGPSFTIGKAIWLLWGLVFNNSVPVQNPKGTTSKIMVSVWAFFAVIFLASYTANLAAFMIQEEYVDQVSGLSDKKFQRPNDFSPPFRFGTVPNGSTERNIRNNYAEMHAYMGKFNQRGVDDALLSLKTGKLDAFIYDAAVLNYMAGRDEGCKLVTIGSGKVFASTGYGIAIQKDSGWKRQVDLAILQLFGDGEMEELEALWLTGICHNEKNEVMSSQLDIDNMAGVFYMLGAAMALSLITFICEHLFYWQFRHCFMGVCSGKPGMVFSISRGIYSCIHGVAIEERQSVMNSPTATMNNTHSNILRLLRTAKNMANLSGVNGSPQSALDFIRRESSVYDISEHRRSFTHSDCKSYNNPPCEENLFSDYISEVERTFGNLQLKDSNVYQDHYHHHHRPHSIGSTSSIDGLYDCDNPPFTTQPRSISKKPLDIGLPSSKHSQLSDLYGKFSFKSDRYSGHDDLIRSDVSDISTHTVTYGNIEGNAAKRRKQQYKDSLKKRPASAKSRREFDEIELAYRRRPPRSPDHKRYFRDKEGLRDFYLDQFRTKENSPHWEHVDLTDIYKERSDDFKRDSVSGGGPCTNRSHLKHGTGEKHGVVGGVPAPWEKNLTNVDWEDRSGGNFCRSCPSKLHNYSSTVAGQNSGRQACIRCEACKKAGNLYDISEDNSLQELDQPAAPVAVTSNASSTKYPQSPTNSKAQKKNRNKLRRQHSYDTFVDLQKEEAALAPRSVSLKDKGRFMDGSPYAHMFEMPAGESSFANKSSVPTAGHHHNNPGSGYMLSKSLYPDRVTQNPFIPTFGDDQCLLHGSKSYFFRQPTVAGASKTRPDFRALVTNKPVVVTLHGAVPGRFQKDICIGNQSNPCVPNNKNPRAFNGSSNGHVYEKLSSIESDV

For the compound `CC(=O)O[C@H]1C(=O)[C@@]2(C)[C@H]([C@H](OC(=O)c3ccccc3)[C@]3(O)C[C@H](OC(=O)[C@H](O)[C@@H](NC(=O)c4ccccc4)c4ccccc4)C(C)=C1C3(C)C)[C@]1(OC(C)=O)CO[C@@H]1C[C@@H]2O` [paclitaxel], in data set [1], the “baseline amplitude of evoked monosynaptic EPSCs” value is given as “significantly larger”, the “baseline frequency of mEPSCs in lamina II neurons” value is on record as “significantly higher” and the “paired-pulse ratio (PPR) in lamina II neurons” value is “significantly reduced”. Besides, the “withdrawal thresholds to tactile, noxious pressure and noxious heat stimuli” value in data set [2] was “lower withdrawal thresholds”. For the same compound, in data set [3], the “mRNA level of α2δ-2 or α2δ-3 in the DRG and dorsal spinal cord” value is on record as “similar”; the “α2δ-1-GluN1 complex in the dorsal spinal cord” value is reported as “significantly higher”; the “α2δ-1 and GluN1 protein levels in spinal synaptosomes” value is on record as “significantly higher”; the “α2δ-1 mRNA levels in the DRG and dorsal spinal cord” value is listed as “substantially higher”. Besides, in data set [3], the “α2δ-1 protein levels in the DRG and spinal cord” value is listed as “much higher”. Further, in data set [4], the “duration of hypersensitivity after the last injection” value was “at least 10 days”; the “pain hypersensitivity after systemic paclitaxel” value was “induced tactile allodynia and heat and cold hyperalgesia”.
